Molecules are shown by their SMILES.

Chain of Free fatty acid receptor 1 (O14842 whole entry): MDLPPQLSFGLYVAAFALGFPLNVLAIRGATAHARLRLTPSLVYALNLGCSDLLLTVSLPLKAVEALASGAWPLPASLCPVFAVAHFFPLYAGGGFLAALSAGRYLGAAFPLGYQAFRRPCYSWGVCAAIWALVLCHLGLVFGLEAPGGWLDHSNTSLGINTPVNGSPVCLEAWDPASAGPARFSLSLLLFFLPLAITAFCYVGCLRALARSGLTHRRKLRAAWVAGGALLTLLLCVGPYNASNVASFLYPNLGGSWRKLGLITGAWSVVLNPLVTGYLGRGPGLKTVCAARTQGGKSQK

The assay concerns the target Free fatty acid receptor 1 (Homo sapiens, UniProt O14842). The assay is described as follows: Agonist activity at FFAR1 (unknown origin) assessed as increase in ERK1/2 MAP kinase phosphorylation.
One may read the EC50 as the midpoint of the concentration-response curve. In the case of `O=C(O)CCc1ccc(NCc2cccc(Oc3ccccc3)c2)cc1` [GW9508], the EC50 was 0.316 µM. The result for `CCc1ccc(CCOc2ccc(CC3SC(=O)NC3=O)cc2)nc1` (stereo not drawn) [PIOGLITAZONE] reads 813 µM; that for `CN(CCOc1ccc(CC2SC(=O)NC2=O)cc1)c1ccccn1` (stereo not drawn) [ROSIGLITAZONE], 11.5 µM.

The values above are taken from ChEMBL document CHEMBL3351760, “Homology modeling and explicit membrane molecular dynamics simulation to delineate the mode of binding of thiazolidinediones into FFAR1 and the mechanism of receptor activation” (Bioorg Med Chem Lett, 2014).
